{
  "source": "patent US5593678A",
  "about": "“Protection of teleost fish” (University of Georgia Research Foundation, priority 1994, dated 1997)",
  "key": {"[1]": {"tested_on": "NCC (lysis of IM-9 target cells)", "assay": "NCC cytotoxicity (51Cr release) after treatment with protein kinase inhibitors", "format": "cell-based, channel catfish (Ictalurus punctatus)", "conditions": "for Percentage specific release: media control 25.9%; for activation at 30 µM / activation at 60 µM: read-out: Percentage increase (vs media control)", "protocol": "To prepare NCC, fish were lightly anesthetized with ethyl m-aminobenzoate (Sigma Chemical Co.) in water and sacrificed.\nIM-9 target cells were used in cytotoxicity assays. […] Cells were grown in stationary suspension cultures and were maintained at approximately 1×10^6 cells/ml. […]"}, "protein kinase C (PKC)": {"tested_on": "protein kinase C (PKC)", "conditions": "cited from earlier work"}, "[2]": {"tested_on": "cyclic nucleotide dependent kinases", "conditions": "cited from earlier work"}, "[3]": {"tested_on": "NCC (lysis of IM-9 target cells)", "assay": "Costimulation assay: NCC cytotoxicity (51Cr release) with A23187 or mab 5C6", "format": "cell-based, channel catfish (Ictalurus punctatus)", "conditions": "for activity at 60 µM: Ictalurus punctatus, IM-9, 2 h, mabs 1:50 dilution, H-7, HA1004 60 μM, genistein 0.5 μg/ml", "protocol": "Incubation was two hours and cells were either washed or not washed before addition to ^51 Cr-labeled IM-9 target cells (4- to 6-hour cytotoxicity assays).\nTo further investigate this inhibitory effect, a costimulus experiment was done using a calcium ionophore, e.g., A23187, combined with the various inhibitors and activators of NCC activity. Pretreatment of NCC with A23187 produced an almost identical increase in cytotoxicity regardless of the identity of the first treatment.\nIn a second costimulus experiment mab 5C6 was used (instead of A23187) to activate cytotoxicity (Table 6)."}, "[4]": {"tested_on": "NCC membrane proteins (tyrosine phosphorylation)", "assay": "Tyrosine phosphorylation of NCC membrane proteins following mab 5C6 activation (Western blot)", "format": "cell-based, channel catfish (Ictalurus punctatus)", "conditions": "NCC pretreated two hours with inhibitor; 100 μg/ml genistein or 30 μM HA1004", "protocol": "FIG. 1. Tyrosine phosphorylation of NCC membrane proteins following activation by mab 5C6. NCC were resuspended at 500×10^6 /ml and 200 μl aliquots were incubated at 37° C. with either 125 μl ammonium sulfate precipitate mab 5C6 (left panel) or an isotype control (right panel). At the indicated timed intervals, the reactions were terminated by addition of 325 μl of 2×lysis buffer. Lysates were immunoprecipitated with mab 4G10, electrophoresed on 11% SDS-PAGE, blotted onto nitrocellulose, and probed with mab 4G10. Molecular weight markers are indicated by the arrows.\nFIG. 2. Tyrosine phosphorylation of Percoll-enriched NCC. Fish NCC were centrifuged for 15 minutes at 500 g on a 45.5% Percoll cushion. The cells at the interphase were harvested, washed, and treated with mab 5C6 for 0 and 20 sec before addition of 2×lysis buffer. Lysates were electrophoresed, blotted on nitrocellulose, and probed with mab 4G10.\nFIG. 3. Effects of genistein on tyrosine phosphorylation in fish NCC. Fish NCC were incubated with media, genistein (100 μg/ml), or HA1004 (30 μM) for two hours prior to activation for zero time with mab 5C6 (left lane) and 40 sec with either mab 5C6 (middle lane) or an irrelevant IgM isotype control (right lane). Reactions were stopped by addition of lysis buffer and lysates were processed as explained in the legends to FIGS. 1 and 2. […]"}, "Na^+ /K^+ ATPase": {"tested_on": "Na^+ /K^+ ATPase", "conditions": "cited from earlier work"}},
  "note": "“Also recorded” adds a separate entry of the source. Where a name gives a salt, the structure may show the parent alone. Read-outs that look alike come from different tables or passages of the source.",
  "data": [
    {"smiles": "CNCCNS(=O)(=O)c1cccc2cnccc12.Cl.Cl", "note": "[H-8, N-(2-(methylamino)ethyl)-5-isoquinolinesulfonamide di-HCl]", "values": [
      {"measurement": "inhibition of NCC cytotoxicity", "setting": "[1]", "result": "time and dose dependent inhibition of NCC cytotoxicity"},
      {"measurement": "inhibition at 30 µM", "setting": "[1]; Ictalurus punctatus, 1.5 h, read-out: Percentage inhibition (NCC activity), 30 μM, 90 minutes, washed, E:T 80.1", "result": 0, "unit": "%"},
      {"measurement": "inhibition at 60 µM", "setting": "[1]; Ictalurus punctatus, 1.5 h, read-out: Percentage inhibition (NCC activity), 60 μM, 90 minutes, washed, E:T 80.1", "result": 13.8, "unit": "%"},
      {"measurement": "inhibition at 150 µM", "setting": "[1]; Ictalurus punctatus, 1.5 h, read-out: Percentage inhibition (NCC activity), 150 μM, 90 minutes, washed, E:T 80.1", "result": 36.9, "unit": "%"},
      {"measurement": "inhibition at 300 µM", "setting": "[1]; Ictalurus punctatus, 1.5 h, read-out: Percentage inhibition (NCC activity), 300 μM, 90 minutes, washed, E:T 80.1", "result": 46.5, "unit": "%"},
      {"measurement": "inhibition of NCC activity, comparison with H-7", "setting": "[1]; approximately 150 μM H-8, di-HCl", "result": "levels of inhibition comparable to that obtained with an approximately 30 μM concentration of H-7"},
      {"measurement": "effect on protein kinase C", "setting": "protein kinase C (PKC); di-HCl", "result": "almost no effect on PKC activity; also recorded: limited effect on PKC"},
      {"measurement": "inhibition of cyclic nucleotide dependent kinases", "setting": "[2]", "result": "more inhibitory of cyclic nucleotide dependent kinases"}
    ]},
    {"smiles": "N=C(N)NCCNS(=O)(=O)c1cccc2cnccc12", "note": "[HA1004, N-(2-guanidoethyl)-5-isoquinolinesulfonamide di-HCl]", "values": [
      {"measurement": "Percentage specific release", "setting": "[3]; E:T 40:1, 10^-4 M A23187, 60 μM H7 and HA1004, 0.5 μg/ml genistein, 1:3 dilution of tissue culture supernatant, media control 20.6", "result": 33.2, "unit": "%"},
      {"measurement": "activity at 60 µM", "setting": "[3]; 4 × 10^6 NCC/ml, read-out: Percentage of control (E:T ratio) 40%", "result": 211, "unit": "%"},
      {"measurement": "activity at 60 µM", "setting": "[3]; read-out: Percentage of control (E:T ratio) 20%", "result": 243, "unit": "%"},
      {"measurement": "influence of pretreatment on A23187 activation", "setting": "[3]; pretreatment prior to A23187, di-HCl", "result": "did not appear to be additive and did not influence the final level of activation"},
      {"measurement": "specific protein phosphorylation after mab 5C6", "setting": "[4]", "result": "did occur"},
      {"measurement": "effect of removal (washing) of inhibitor on cytotoxicity", "setting": "[1]", "result": "did not reduce the augmentation of cytotoxicity"},
      {"measurement": "Percentage specific release", "setting": "[1]; 30 μM, 60 min", "result": 38.7, "unit": "%"},
      {"measurement": "Percentage specific release", "setting": "[1]; 30 μM, 120 min", "result": 39.0, "unit": "%"},
      {"measurement": "Percentage specific release", "setting": "[1]; 30 μM, 180 min/wash", "result": 36.0, "unit": "%"},
      {"measurement": "Percentage specific release", "setting": "[1]; 30 μM, 180 min", "result": 35.9, "unit": "%"},
      {"measurement": "Percentage specific release", "setting": "[1]; 60 μM, 60 min", "result": 38.5, "unit": "%"},
      {"measurement": "Percentage specific release", "setting": "[1]; 60 μM, 120 min", "result": 36.9, "unit": "%"},
      {"measurement": "Percentage specific release", "setting": "[1]; 60 μM, 180 min/wash", "result": 34.2, "unit": "%"},
      {"measurement": "Percentage specific release", "setting": "[1]; 60 μM, 180 min", "result": 36.5, "unit": "%"},
      {"measurement": "activation at 30 µM", "setting": "[1]; Ictalurus punctatus, 1 h, 30 μM, 60 min", "result": 49.2, "unit": "%"},
      {"measurement": "activation at 60 µM", "setting": "[1]; Ictalurus punctatus, 1 h, 60 μM, 60 min", "result": 48.3, "unit": "%"},
      {"measurement": "activation at 30 µM", "setting": "[1]; Ictalurus punctatus, 2 h, 30 μM, 120 min", "result": 50.2, "unit": "%"},
      {"measurement": "activation at 60 µM", "setting": "[1]; Ictalurus punctatus, 2 h, 60 μM, 120 min", "result": 42.1, "unit": "%"},
      {"measurement": "activation at 30 µM", "setting": "[1]; Ictalurus punctatus, 3 h, 30 μM, 180 min/wash", "result": 38.7, "unit": "%"},
      {"measurement": "activation at 30 µM", "setting": "[1]; Ictalurus punctatus, 3 h, 30 μM, 180 min", "result": 38.5, "unit": "%"},
      {"measurement": "activation at 60 µM", "setting": "[1]; Ictalurus punctatus, 3 h, 60 μM, 180 min/wash", "result": 31.8, "unit": "%"},
      {"measurement": "activation at 60 µM", "setting": "[1]; Ictalurus punctatus, 3 h, 60 μM, 180 min", "result": 40.6, "unit": "%"},
      {"measurement": "effect on protein kinase C", "setting": "protein kinase C (PKC)", "result": "no effect on PKC"},
      {"measurement": "inhibition of cyclic nucleotide dependent kinases", "setting": "[2]", "result": "inhibits mostly cyclic nucleotide dependent kinases"}
    ]},
    {"smiles": "[O]=[V+2]", "note": "[vanadyl ion, vanadyl (IV) ion]", "values": [
      {"measurement": "Na^+ /K^+ ATPase inhibition", "setting": "Na^+ /K^+ ATPase", "result": "little effect"}
    ]}
  ]
}
